Experimental data: ChEMBL document CHEMBL5335817, “Discovery and optimization of (2-naphthylthio)acetic acid derivative as selective Bfl-1 inhibitor” (Bioorg Med Chem Lett, 2024)

Assays:
[1] = molecular target: T1, Bcl-2-related protein A1 (Homo sapiens, UniProt Q16548)
T1 sequence (Q16548 whole entry): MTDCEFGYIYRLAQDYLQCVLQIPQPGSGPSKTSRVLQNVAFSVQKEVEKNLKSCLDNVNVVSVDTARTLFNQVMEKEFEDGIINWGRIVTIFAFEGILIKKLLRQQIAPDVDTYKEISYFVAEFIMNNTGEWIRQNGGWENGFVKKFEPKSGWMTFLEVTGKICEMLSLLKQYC
Description: Inhibition of recombinant Bfl-1 (1-152) (unknown origin) by TR-FRET assay

[2] = molecular target: T1, Bcl-2-related protein A1; test: Inhibition of Bfl-1 (unknown origin) assessed as inhibition constant
[3] = molecular target: T2, Bcl-2-like protein 2 (Homo sapiens, UniProt Q92843); test: Inhibition of GST fused Bcl-w (unknown origin) incubated for 5 min by TR-FRET assay
T2 sequence (Q92843 whole entry): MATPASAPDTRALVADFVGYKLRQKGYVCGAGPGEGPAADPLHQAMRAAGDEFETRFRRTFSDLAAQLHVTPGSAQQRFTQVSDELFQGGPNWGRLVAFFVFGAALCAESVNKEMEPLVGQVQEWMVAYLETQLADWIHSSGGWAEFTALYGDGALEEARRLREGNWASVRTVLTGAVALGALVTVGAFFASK

[4] = molecular target: Apoptosis regulator Bcl-2 (Homo sapiens, UniProt P10415); test: Inhibition of GST fused Bcl-2 (unknown origin) incubated for 5 min by TR-FRET assay
Apoptosis regulator Bcl-2, sequence (P10415 whole entry, the tested form may be a part): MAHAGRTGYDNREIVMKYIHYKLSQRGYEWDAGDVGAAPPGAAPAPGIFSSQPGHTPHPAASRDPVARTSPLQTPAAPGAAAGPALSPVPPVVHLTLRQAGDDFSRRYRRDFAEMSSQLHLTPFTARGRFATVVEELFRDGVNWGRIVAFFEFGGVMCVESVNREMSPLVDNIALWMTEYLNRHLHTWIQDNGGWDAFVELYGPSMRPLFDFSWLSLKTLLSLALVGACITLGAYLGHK

[5] = molecular target: T3, Induced myeloid leukemia cell differentiation protein Mcl-1 (Homo sapiens, UniProt Q07820); test: Inhibition of GST fused Mcl-1 (unknown origin) incubated for 5 min by TR-FRET assay
T3 sequence (Q07820 whole entry, the tested form may be a part): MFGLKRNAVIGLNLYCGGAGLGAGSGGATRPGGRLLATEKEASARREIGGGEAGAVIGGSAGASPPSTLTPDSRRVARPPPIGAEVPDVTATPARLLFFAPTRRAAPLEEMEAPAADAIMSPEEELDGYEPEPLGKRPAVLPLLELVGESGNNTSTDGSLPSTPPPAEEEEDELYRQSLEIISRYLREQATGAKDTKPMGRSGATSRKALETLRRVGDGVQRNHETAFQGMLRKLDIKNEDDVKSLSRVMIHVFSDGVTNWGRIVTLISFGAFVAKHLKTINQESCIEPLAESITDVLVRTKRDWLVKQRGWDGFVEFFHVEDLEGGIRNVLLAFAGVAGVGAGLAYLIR

[6] = molecular target: Bcl-2-like protein 1 (Homo sapiens, UniProt Q07817); test: Inhibition of GST fused Bcl-xL (unknown origin) incubated for 5 min by TR-FRET assay
Bcl-2-like protein 1, sequence (Q07817 whole entry, the tested form may be a part): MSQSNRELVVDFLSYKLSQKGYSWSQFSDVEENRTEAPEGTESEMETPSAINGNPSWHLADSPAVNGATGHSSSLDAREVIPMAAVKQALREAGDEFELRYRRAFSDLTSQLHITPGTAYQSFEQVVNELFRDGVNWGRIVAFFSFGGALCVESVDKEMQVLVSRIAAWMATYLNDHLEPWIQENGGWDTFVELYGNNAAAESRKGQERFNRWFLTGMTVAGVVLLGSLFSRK

[7] = molecular target: T1, Bcl-2-related protein A1; test: Inhibition of Bfl-1 (unknown origin) incubated for 30 min by fluorescence polarization assay
[8] = molecular target: T1, Bcl-2-related protein A1; test: Inhibition of GST-tagged Bfl-1 (unknown origin) incubated for 60 min by TR-FRET assay
[9] = molecular target: T3, Induced myeloid leukemia cell differentiation protein Mcl-1
Description: Inhibition of Mcl-1 (unknown origin) assessed as inhibition constant

Structure (SMILES)	IC50 [1] [µM]	Ki [2] [µM]	further results
CC(C)=CCC[C@]1(C)C=Cc2c(O)c3c(c(CC=C(C)C)c2O1)O[C@]12C(=C[C@@H]4C[C@H]1C(C)(C)O[C@@]2(C/C=C(/C)C(=O)O)C4=O)C3=O [GAMBOGIC ACID]	0.176		
COc1ccc(S(=O)(=O)Nc2cc(SCC(=O)O)c(OC)c3ccccc23)cc1		> 50	
CCOC(=O)CS(=O)(=O)c1nc(-c2ccc(F)cc2)cc(C(F)(F)F)n1			IC50 [3]: > 100 µM; IC50 [4]: > 100 µM; IC50 [5]: > 100 µM; IC50 [6]: > 100 µM
COc1ccc(C(c2c(-c3ccccc3)n(O)c3ccccc23)N2CCN(C)CC2)cc1 (stereo unspecified)			IC50 [7]: 0.8 µM; IC50 [8]: 1.4 µM
O=C(O)CSc1cc(NS(=O)(=O)c2ccc(-c3ccccc3)cc2)c2ccccc2c1O		2.21	Ki [9]: 4.71 µM
COc1c(SCC(=O)O)cc(NS(=O)(=O)c2ccc(C)cc2)c2ccccc12		> 50	
O=C(O)CSc1cc(NS(=O)(=O)c2cccs2)c2ccccc2c1O	4.61		
COC(=O)CSc1cc(NS(=O)(=O)c2ccc(-c3ccccc3)cc2)c2ccccc2c1OC		> 50	
O=C(O)CSc1cc(NS(=O)(=O)c2ccc(Br)cc2)c2ccccc2c1O	8.41	3.17	Ki [9]: 1.91 µM
